According to patent US6875575B1, “Diagnostic methods for neoplasia” (OSI Pharmaceuticals, Inc., priority 1998, dated 2005):
Entries after “also recorded” stand apart in the source; their conditions may differ. Where two headings read alike, the source gives them in different places.

Columns and labels:
PDE peak A (PDE5) = biological target: T1, PDE peak A (PDE5) (Homo sapiens, UniProt O76074); assay: cGMP hydrolysis by PDE peak A from SW-480 cells; assay type: biochemical
T1 construct: SW-480 cells are collected and homogenized; endogenous in cells; host or cells: SW-480 cells; supernatant fractionated on DEAE-Trisacryl M, peak A

[1] = tested on: PDE peak B (novel cGMP-specific PDE); assay: cGMP hydrolysis by PDE peak B from SW-480 cells; assay type: biochemical, human
neoplastic cells = assay: Apoptosis induction in neoplastic cells; assay type: cell-based
HT-29 cells = assay: Apoptosis and necrosis by morphology (acridine orange/ethidium bromide); assay type: cell-based; settings: HT-29 cells treated for six days
Description: In one type of apoptosis assay, suspected neoplastic cells are removed from a patient. The cells are then grown in culture in the presence or absence of a cGMP-specific PDE inhibitor. Apoptotic cells are measured by combining both the attached and “floating” compartments of the cultures. The protocol for treating tumor cell cultures with PDE inhibitors and related compounds to obtain a significant amount of apoptosis has been described in the literature. (See, Piazza, G. A., et al., Cancer Research, 55:3110-16, 1995, which is incorporated herein by reference). The novel features of this assay include collecting both floating and attached cells, identification of the optimal treatment times and dose range for observing apoptosis, and identification of optimal cell culture conditions. […]
Apoptotic and necrotic cell death was determined as previously described (Duke and Cohen, In: Current Protocols in Immunology, 3.17.1-3.17.16, New York, John Wiley and Sons, 1992). […]
The diagnostic method of this invention is used to determine whether a particular neoplasia is sensitive to treatment with a cGMP-specific PDE inhibitor. The apoptosis inducing activity for a series of phosphodiesterase inhibitors, specific for different PDEs, was determined. […] Apoptosis and necrosis were determined morphologically after acridine orange and ethidium bromide labeling in accordance with the assay described, supra.

[2] = tested on: colonic polyps (dysplastic tissue); assay: Apoptosis clinical study: apoptotic labeling index (ALI) in polyps; assay type: in vivo, human
Description: (§1) Increases in apoptosis are indicative that the neoplasia in question is sensitive to treatment with a cGMP-specific PDE inhibitor, such as sulindac sulfone (aposulind). A human in vivo aposulind-induced selective induction of apoptosis in colonic polyps is described below. Six familial polyposis patients per group were administered one of three doses of aposulind (200 mg, 400 mg which was later lowered to 200 mg for most patients in the group, or 300 mg) twice daily (BID).
Biopsies are taken from patients and used to investigate possible cellular mechanisms of apoptosis. Biopsy samples are placed in transfer media (500 ml RPMI 1640 containing 50 ml fetal calf serum, 5×10^8 units penicillin G, and 5×10^6 μg streptomycin) and kept on ice for less than 1 hour until transfer to the pathology department. Upon receipt in the pathology department, samples are removed from the transfer media and oriented mucosa up, serosa down on filter paper, placed between biopsy sponges in a tissue cassette, and fixed in 10% neutral buffered formalin for 24 hours. Samples are then transferred to 70% ethanol and embedded in paraffin. Samples are oriented perpendicularly to the tissue cassette during final orientation in paraffin for longitudinal crypt exposure and easy visualization of mucosa and the relation to the basement membrane.
Four micron sections of tissue were cut, mounted, deparaffinized, rehydrated in graded alcohol, and treated with pepsin (5 mg/ml) to digest protein in the tissue. Sections were washed and treated with 2% hydrogen peroxide (H2O2) in PBS to quench endogenous peroxidase and washed again. Tissue samples were then circled with a PAP pen (Research Products Int., 800-323-9814) to produce a hydrophobic barrier to concentrate reagents on the sample. […]
(§2) Apoptotic and nonapoptotic cells are counted on the basis of staining and morphology. An apoptotic labeling index (ALI) is calculated by dividing the total number of apoptotic cells counted by the total number of epithelial cells counted and expressing the quotient as a percentage.

normal mucosa = assay: Apoptosis clinical study: ALI in normal mucosa; assay type: in vivo, human; settings: any of the treatment groups
Description: as §1
Biopsies are taken from patients and used to investigate possible cellular mechanisms of apoptosis. Biopsy samples are placed in transfer media (500 ml RPMI 1640 containing 50 ml fetal calf serum, 5×10^8 units penicillin G, and 5×10^6 μg streptomycin) and kept on ice for less than 1 hour until transfer to the pathology department. Upon receipt in the pathology department, samples are removed from the transfer media and oriented mucosa up, serosa down on filter paper, placed between biopsy sponges in a tissue cassette, and fixed in 10% neutral buffered formalin for 24 hours. […]
as §2

Compound | inhibition of peak A / PDE5 (in words) (PDE peak A (PDE5)) | inhibition of peak B / new cGMP-PDE (in words) [1] | induction of apoptosis in neoplastic cells (in words) (neoplastic cells) | also measured
CCCc1nn(C)c2c(=O)[nH]c(-c3cc(S(=O)(=O)N4CCN(C)CC4)ccc3OCC)nc12 [Sildenafil] | inhibited activity of peak A | relatively insensitive to inhibition | do not have significant apoptosis-inducing or growth-inhibiting properties | 
COc1cc(/C=C2/C(C)=C(CC(=O)NCc3ccccc3)c3cc(F)ccc32)cc(OC)c1OC [Compound E, (Z)-5-fluoro-2-methyl-1-(3,4,5-trimethoxybenzylidene)-3-indenylacetamide, N-benzyl] | competitively inhibit | competitively inhibit | induce apoptosis in neoplastic cells | 
CC1=C(CC(=O)O)c2cc(F)ccc2/C1=C\c1ccc(S(C)(=O)=O)cc1 [Exisulind, (Z)-5-fluoro-2-methyl-1-[[4-(methylsulfonyl)phenyl]methylene]indene-3-yl acetic acid] |  |  |  | apoptotic and necrotic cell death (FIG. 1) (HT-29 cells): capable of causing apoptotic cell death without inducing neoplastic cell necrosis; change in ALI following treatment ([2]; 200 mg BID group): did not demonstrate any elevation in ALI; change in ALI in polyps ([2]; 300 mg BID, six months of treatment): two fold increase in ALI; change in ALI of dysplastic tissue following drug treatment ([2]; 400/200 mg BID group when uniformly dosed at 400 mg BID): two-fold elevation in ALI; normal mucosa ALI versus baseline ALI during treatment (normal mucosa): no significant change
CC1(C)C(=O)Nc2ccc(C3=NNC(=O)CC3)cc21 [Indolidan] |  | relatively insensitive |  | 
CSc1ccc(/C=C2/C(C)=C(CC(=O)O)c3cc(F)ccc32)cc1 [Sulindac sulfide, sulindac sulfide] | inhibit | inhibit | induce apoptosis in neoplastic cells | apoptotic and necrotic cell death (FIG. 1) (HT-29 cells): capable of causing apoptotic cell death without inducing neoplastic cell necrosis; inhibition of peak A / PDE5 (in words) (PDE peak A (PDE5); listed as sulindac sulfide): competitively inhibit; inhibition of peak B / new cGMP-PDE (in words) ([1]; listed as sulindac sulfide): competitively inhibit
COc1ccc(C2CNC(=O)C2)cc1OC1CCCC1 (centres unmarked) [Rolipram] |  | relatively insensitive |  | 
CCOC(=O)C1=C[C@]2(CC)CCCN3CCc4c(n1c1ccccc41)[C@@H]32 [Vinpocetine] |  | relatively insensitive |  | 
CCCOc1ccccc1-c1nc2nn[nH]c2c(=O)[nH]1 [Zaprinast] | competitive inhibition | relatively insensitive to inhibition; also recorded: zaprinast-insensitive | do not have significant apoptosis-inducing or growth-inhibiting properties | 
O=C(O)C1CCN(c2nc(NCc3ccc4c(c3)OCO4)c3cc(Cl)ccc3n2)CC1 [Compound E4021] |  | E4021-insensitive | do not have significant apoptosis-inducing or growth-inhibiting properties | inhibition of peak B / new cGMP-PDE (in words) ([1]; listed as E402 1): relatively insensitive to inhibition
